Measurements taken from the supplement of paper PMC10307832.

Tests used:
Assay in all cases: relative viability (nuclei count vs DMSO), 5 days (fraction); higher = more cells survive
Selisistat + Alpelisib = compound: C1CC(C2=C(C1)C3=C(N2)C=CC(=C3)Cl)C(=O)N [Selisistat] + Cc1nc(NC(=O)N2CCC[C@H]2C(N)=O)sc1-c1ccnc(C(C)(C)C(F)(F)F)c1 [Alpelisib] (partner 2 µM)
In short: (§1)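 One day after seeding in 1536-well plates, lung cancer cell lines were dosed by pin tool. Dosing was either single-drug or a fixed anchor-drug dose plus five library-drug doses (not always all listed) in √10 steps. After 5 days, nuclei were stained in one fix-and-stain step and counted on 4× images, and relative viability is the nuclei count of treated wells over that of vehicle wells, given as the median of duplicate plates.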

Selisistat + Pemetrexed = compound: C1CC(C2=C(C1)C3=C(N2)C=CC(=C3)Cl)C(=O)N [Selisistat] + Nc1nc2[nH]cc(CCc3ccc(C(=O)N[C@@H](CCC(=O)O)C(=O)O)cc3)c2c(=O)[nH]1 [Pemetrexed] (partner 0.2 µM)
In short: as §1

Selisistat + Olaparib = compound: C1CC(C2=C(C1)C3=C(N2)C=CC(=C3)Cl)C(=O)N [Selisistat] + O=C(c1cc(Cc2n[nH]c(=O)c3ccccc23)ccc1F)N1CCN(C(=O)C2CC2)CC1 [Olaparib] (partner 8 µM)
In short: as §1

Serdemetan + Dasatinib = compound: c1ccc2c(CCNc3ccc(Nc4ccncc4)cc3)c[nH]c2c1 [Serdemetan] + Cc1nc(Nc2ncc(C(=O)Nc3c(C)cccc3Cl)s2)cc(N2CCN(CCO)CC2)n1 [Dasatinib] (partner 0.075 µM)
In short: as §1

## UMC-11
Selisistat + Alpelisib; first compound 0.4 µM
  relative viability: 1.19
Selisistat + Alpelisib; first compound 1.265 µM
  relative viability: 0.99
Selisistat + Alpelisib; first compound 4 µM
  relative viability: 1.04
Selisistat + Alpelisib; first compound 12.65 µM
  relative viability: 0.994
Selisistat + Alpelisib; first compound 40 µM
  relative viability: 0.887
Selisistat + Pemetrexed; first compound 0.4 µM
  relative viability: 0.767
Selisistat + Pemetrexed; first compound 1.265 µM
  relative viability: 0.749
Selisistat + Pemetrexed; first compound 4 µM
  relative viability: 0.844
Selisistat + Pemetrexed; first compound 12.65 µM
  relative viability: 0.754
Selisistat + Pemetrexed; first compound 40 µM
  relative viability: 0.759
Selisistat + Olaparib; first compound 0.4 µM
  relative viability: 0.331
Selisistat + Olaparib; first compound 1.265 µM
  relative viability: 0.356
Selisistat + Olaparib; first compound 4 µM
  relative viability: 0.271
Selisistat + Olaparib; first compound 12.65 µM
  relative viability: 0.334
Selisistat + Olaparib; first compound 40 µM
  relative viability: 0.353
Serdemetan + Dasatinib; first compound 0.04 µM
  relative viability: 0.45
Serdemetan + Dasatinib; first compound 0.1265 µM
  relative viability: 0.437
Serdemetan + Dasatinib; first compound 4 µM
  relative viability: 0.351
